Reference: ChEMBL document CHEMBL5291721, “A preclinical secondary pharmacology resource illuminates target-adverse drug reaction associations of marketed drugs” (Nat Commun, 2023)
Blank lines part the entries; values can stand above or below the molecule they belong to.

Columns and labels:
[1] = target: T1, Muscarinic acetylcholine receptor M2 (Homo sapiens, UniProt P08172)
T1 sequence (P08172 whole entry): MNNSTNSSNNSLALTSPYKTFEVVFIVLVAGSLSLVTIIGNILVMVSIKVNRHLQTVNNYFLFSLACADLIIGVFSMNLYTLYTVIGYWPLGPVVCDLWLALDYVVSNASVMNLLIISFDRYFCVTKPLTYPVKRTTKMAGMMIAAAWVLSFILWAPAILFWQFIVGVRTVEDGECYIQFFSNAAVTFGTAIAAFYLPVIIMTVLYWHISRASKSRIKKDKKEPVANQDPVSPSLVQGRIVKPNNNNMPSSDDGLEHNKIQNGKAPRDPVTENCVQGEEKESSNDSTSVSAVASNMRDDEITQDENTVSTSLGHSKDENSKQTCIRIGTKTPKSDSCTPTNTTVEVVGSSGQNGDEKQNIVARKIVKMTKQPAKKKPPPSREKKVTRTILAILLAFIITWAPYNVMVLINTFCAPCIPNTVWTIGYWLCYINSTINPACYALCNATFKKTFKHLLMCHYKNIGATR

[2] = target: Hydroxycarboxylic acid receptor 2 (Homo sapiens, UniProt Q8TDS4)
Chain of Hydroxycarboxylic acid receptor 2 (Q8TDS4 whole entry): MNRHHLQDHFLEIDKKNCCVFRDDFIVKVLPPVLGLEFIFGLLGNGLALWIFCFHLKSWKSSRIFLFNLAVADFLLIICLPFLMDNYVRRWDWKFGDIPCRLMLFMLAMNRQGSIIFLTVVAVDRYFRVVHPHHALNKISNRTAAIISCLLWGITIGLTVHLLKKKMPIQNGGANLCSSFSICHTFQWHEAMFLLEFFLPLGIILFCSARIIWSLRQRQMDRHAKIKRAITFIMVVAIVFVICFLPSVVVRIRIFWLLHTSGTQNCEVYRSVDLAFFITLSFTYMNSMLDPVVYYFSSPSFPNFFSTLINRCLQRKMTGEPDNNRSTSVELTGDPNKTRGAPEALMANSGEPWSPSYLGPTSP

[3] = target: T2, Peroxisome proliferator-activated receptor alpha (Homo sapiens, UniProt Q07869); format: functional
T2 sequence (Q07869 whole entry): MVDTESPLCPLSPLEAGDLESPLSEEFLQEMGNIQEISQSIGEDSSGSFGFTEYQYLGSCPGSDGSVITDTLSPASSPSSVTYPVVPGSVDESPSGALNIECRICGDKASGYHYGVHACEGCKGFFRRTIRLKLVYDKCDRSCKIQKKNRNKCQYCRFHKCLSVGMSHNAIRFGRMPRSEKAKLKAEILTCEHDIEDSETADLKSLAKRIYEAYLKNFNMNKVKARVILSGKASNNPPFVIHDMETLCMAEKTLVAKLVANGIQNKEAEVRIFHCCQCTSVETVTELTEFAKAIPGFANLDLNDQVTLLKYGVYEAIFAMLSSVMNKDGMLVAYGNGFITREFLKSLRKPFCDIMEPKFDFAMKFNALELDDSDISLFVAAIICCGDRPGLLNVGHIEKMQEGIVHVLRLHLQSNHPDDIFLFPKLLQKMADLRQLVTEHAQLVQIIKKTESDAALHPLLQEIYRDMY

Substance-K receptor = target: T3, Substance-K receptor (Homo sapiens, UniProt P21452)
T3 sequence (P21452 whole entry): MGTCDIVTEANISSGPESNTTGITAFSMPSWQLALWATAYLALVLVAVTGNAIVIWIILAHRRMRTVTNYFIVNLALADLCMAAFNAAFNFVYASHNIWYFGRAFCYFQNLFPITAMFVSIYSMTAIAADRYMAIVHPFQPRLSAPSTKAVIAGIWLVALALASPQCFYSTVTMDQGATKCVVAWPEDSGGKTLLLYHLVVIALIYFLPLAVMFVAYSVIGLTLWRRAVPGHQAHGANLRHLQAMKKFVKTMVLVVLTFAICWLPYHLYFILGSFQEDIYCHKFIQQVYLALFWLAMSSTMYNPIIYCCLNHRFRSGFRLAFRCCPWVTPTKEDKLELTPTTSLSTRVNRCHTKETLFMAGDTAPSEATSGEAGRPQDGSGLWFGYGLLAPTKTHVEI

[4] = target: T4, Muscarinic acetylcholine receptor M4 (Homo sapiens, UniProt P08173)
T4 sequence (P08173 whole entry): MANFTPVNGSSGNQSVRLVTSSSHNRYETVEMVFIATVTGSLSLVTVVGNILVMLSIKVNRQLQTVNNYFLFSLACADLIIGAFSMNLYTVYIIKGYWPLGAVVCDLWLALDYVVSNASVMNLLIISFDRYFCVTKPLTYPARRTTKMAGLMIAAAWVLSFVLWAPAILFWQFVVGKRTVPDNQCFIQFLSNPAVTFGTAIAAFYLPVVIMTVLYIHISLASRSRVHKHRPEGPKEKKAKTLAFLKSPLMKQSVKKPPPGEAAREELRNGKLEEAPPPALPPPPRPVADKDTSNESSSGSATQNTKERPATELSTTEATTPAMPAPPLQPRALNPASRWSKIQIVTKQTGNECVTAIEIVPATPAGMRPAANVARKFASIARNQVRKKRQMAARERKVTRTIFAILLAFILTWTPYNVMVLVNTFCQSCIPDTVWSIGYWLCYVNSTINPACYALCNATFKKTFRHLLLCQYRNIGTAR

Estrogen receptor [5] = target: T5, Estrogen receptor (Homo sapiens, UniProt P03372); format: functional
T5 sequence (P03372 whole entry): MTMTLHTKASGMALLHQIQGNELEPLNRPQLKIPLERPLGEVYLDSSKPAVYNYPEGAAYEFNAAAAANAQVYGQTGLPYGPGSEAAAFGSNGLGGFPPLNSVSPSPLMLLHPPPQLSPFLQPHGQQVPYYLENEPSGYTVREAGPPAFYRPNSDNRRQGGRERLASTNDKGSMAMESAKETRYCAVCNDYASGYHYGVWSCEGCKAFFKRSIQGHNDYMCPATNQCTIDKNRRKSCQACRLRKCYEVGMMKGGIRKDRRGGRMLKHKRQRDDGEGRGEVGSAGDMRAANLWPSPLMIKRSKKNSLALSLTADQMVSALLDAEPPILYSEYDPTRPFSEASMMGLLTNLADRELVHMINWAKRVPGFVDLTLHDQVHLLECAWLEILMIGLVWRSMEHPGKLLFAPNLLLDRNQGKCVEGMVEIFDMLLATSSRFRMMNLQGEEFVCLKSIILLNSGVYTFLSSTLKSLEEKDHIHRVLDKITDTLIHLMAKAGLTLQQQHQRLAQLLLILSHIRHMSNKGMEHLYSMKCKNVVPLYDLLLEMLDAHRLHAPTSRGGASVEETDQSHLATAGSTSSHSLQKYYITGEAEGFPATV

Estrogen receptor [6] = target: T5, Estrogen receptor; format: functional; remark: listed apart in the source
Note: assay procedure not described here.

Compound: CN1CCCC(CC2c3ccccc3Sc3ccccc32)C1 (configuration not stated) [METHIXENE]
AC50 [1]: 0.0053 µM

Compound: Cc1cnc(C(=O)O)c[n+]1[O-] [ACIPIMOX]
AC50 [2]: 3.9 µM

AC50 [3]: > 30 µM
Compound: CC(C)(Oc1ccc(Cl)cc1)C(=O)OCCOC(=O)c1cccnc1 [ETOFIBRATE]

Compound: N=C(N)NC(=O)c1nc(Cl)c(N)nc1N [AMILORIDE]
AC50 (Substance-K receptor): > 10 µM | AC50 [4]: > 10 µM

Compound: COc1cccc2c1C(=O)c1c(O)c3c(c(O)c1C2=O)C[C@@](O)(C(=O)CO)C[C@@H]3O[C@H]1C[C@H](N)[C@H](O)[C@H](C)O1 [DOXORUBICIN]
AC50 (Estrogen receptor [5]): > 10 µM | AC50 (Estrogen receptor [6]): > 3 µM
